Reference: patent US20180161276A1, “TEMPERATURE-RESPONSIVE COMPOSITION, METHOD FOR FABRICATING, AND USE THEREOF” (NATIONAL TSING HUA UNIVERSITY, priority 2016, published 2018)

Biological target: hemoglobin (Hb) (Homo sapiens, UniProt P68871+P69905)
Test: Anti-degradation ability of produced nitric oxide in the presence of hemoglobin
Assay type: physicochemical
Conditions: in the presence of hemoglobin compared to absence of hemoglobin
From the text: As mentioned above, the half-life of nitric oxide is quite short due to the reaction between nitric oxide and erythrocyte in plasma or ceruloplasmin. Please refer to FIG. 6A and FIG. 6B.
However, the half-life of nitric oxide, which is produced by using the temperature-responsive composition of the 1st embodiment in the present disclosure in the presence of hemoglobin, only has a degradation of 40% as shown in FIG. 6B. That is, it proves that applying the temperature-responsive composition of the present disclosure can extend the half-life of the produced nitric oxide.

hemoglobin (Hb), sequence (P69905 2-142 limits assumed): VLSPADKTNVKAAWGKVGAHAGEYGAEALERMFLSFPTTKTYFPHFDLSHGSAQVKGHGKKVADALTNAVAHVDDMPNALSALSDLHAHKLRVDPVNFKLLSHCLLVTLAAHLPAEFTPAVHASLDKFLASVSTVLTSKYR
hemoglobin (Hb), sequence (P68871 2-147 limits assumed): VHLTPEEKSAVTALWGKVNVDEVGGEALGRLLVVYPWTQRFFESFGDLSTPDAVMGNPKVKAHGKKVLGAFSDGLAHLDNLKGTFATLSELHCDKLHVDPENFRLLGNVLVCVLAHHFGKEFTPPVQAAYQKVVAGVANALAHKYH

NCCN(CCN)/[N+]([O-])=N/O [diethylenetriaine-NONOate]
degradation of the half-life of the produced nitric oxide: 85%
